From US6911446B2, “Methods of modulating serine/threonine protein kinase function with quinazoline-based compounds” (Sugen, Inc., priority 1997, dated 2005)

Experiments:
[1] = test system: NIH-3T3 cells expressing RAF-1; assay: Growth of NIH-3T3 cells expressing RAF-1; assay type: cell-based; conditions: Mus musculus, NIH3T3; growth of NIH-3T3 cells overexpressing RAF
From the text: The following assay measures growth rates for NIH-3T3 cells expressing RAF-1. The protocol for the assay is described in detail in PCT Publication WO9640116, filed Jun. 5, 1996, by Tang et al., and entitled “Indolinone Compounds for the Treatment of Disease,” incorporated herein by reference in its entirety, including any drawings.

[2] = test system: 3T3/H-Ras (NIH 3T3 clone 7 cells expressing genomic fragment of oncogenic H-Ras); assay: Growth of NIH 3T3 cells over expressing H-Ras (SRB); assay type: cell-based; conditions: Mus musculus, NIH3T3, 72 h, growth of 3T3/H-Ras cells, 3 days with compound
Method: The following assay measures growth rates for NIH-3T3 cells expressing RAS. The purpose of the assay is to determine the effects of compounds on the growth of NIH 3T3 cells over expressing H-Ras.
• 96-well flat bottom sterile plates • 96-well round bottom sterile plates • sterile 25 mL or 100 mL reservoir • pipets, multi-channel pipetman • sterile pipet tips • sterile 15 mL and 50 mL tubes Reagents • 0.4% SRB in 1% acetic acid • 10 mM Tris base • 10% TCA • 1% acetic acid • sterile DMSO (Sigma) • compound in DMSO (100 mM or less stock solution) • Trypsin-EDTA (GIBCO BRL) Cell Line: 3T3/H-Ras (NIH 3T3 clone 7 cells expressing genomic fragment of oncogenic H-Ras).
The cells can be constructed using the following protocol: • 1. Subclone a gene fragment encoding Ras into a commercially available vector that will stably transfect NIH-3T3 cells. The fragment is from the genomic transforming allele of cHa-ras. • 2. Transfect NIH-3T3 cells with the subcloned vector by a calcium phosphate method. Select cells expressing the Ras construct in 2% serum in DMEM. Visible foci are observed after 2 weeks. Pool the transformed cells to generate a stably transformed cell line. Growth Medium: 2% calf serum/DMEM+2 mM glutamine, Pen/Strep Protocol: Day 0: Cell Plating:
This part of assay is carried out in a laminar flow hood. • 1. Trypsinize cells. Transfer 200 μL of cell suspension to 10 mL of isotone. Count cells with a Coulter Counter. • 2. Dilute cells in growth medium to 60,000 cell/mL. Transfer 100 μL of cells to each well in a 96-well flat bottom plate to give 6000 cells/well. • 3. Use half of plate (4 rows) for each comound and quadruplicate wells for each compound concentration, and a set of 4 wells for medium control. • 4. Gently shake plates to allow for uniform attachment of the cells. • 5. Incubate the plates at 37° C. in a 10% CO2 incubator. Day 1: Addition of Compound:
This part of assay is carried out in a laminar flow hood. • 1. In a 96-well round bottom plate, add 120 μL of growth medium containing 2×final % DMSO found in highest screening concentration of compound to columns 1 to 11. For example, if the highest concentration is […], and this is made from a 100 mM stock, 1×DMSO is 0.1%, so 2×DMSO is 0.2%. This plate is used to titrate out the compound, 4 rows per compound. • 2. In a sterile 15 mL tube, make a 2×solution of the highest screening concentration of compound in growth medium plus 2×DMSO. 1 mL per cell line is needed. The starting concentration of the compound is usually 100 μM but this concentration may vary depending upon the solubility of the compound. • 3. Transfer 240 μL of the 2×starting compound solution to qudruplicate wells in column 12 of the 96-well round bottom plate. Do 1:2 serial dilutions across the plate from right to left by transferring […] from column 12 to column 11, column 11 to 10 and so on through column 2. Transfer 100 μL of compound dilutions, and 100 μL of medium in column 1, onto 100 μL medium on cells in corresponding wells of 96-well flat bottom plate. Total volume per well should be 200 μL. • 4. Return the plate to the incubator and incubate for 3 days. Day 4: Development of Assay
This party of assay is carried out on the bench. • 1. Aspirate or pour off medium. Add 200 μL cold 10% TCA to each well to fix cells. Incubate plate for at least 60 min. at 4° C. • 2. Discard TCA and rinse wells 5 times with tap water. Dry plates upside down on paper towels. • 3. Stain cells with 100 μL/well 0.4% SRB for 10 min. • 4. Pour of SRB and rinse wells 5 times with 1% acetic acid. Dry plates completely upside down on paper towels. • 5. Solubilize dye with 100 μL/well 10 mM Tris base for 5-10 min. on shaker. • 6. Read plates on Dynatech ELISA Plate REader at 570 nm with reference at 630 nm.

Row | SMILES | IC50 [1] [µM] | IC50 [2] [µM]
1 | Nc1nc(N)c2c(Oc3ccccc3)cccc2n1 [Compound A-1, 2,4-Diamino-5-phenoxyquinazoline] | 0.16 | 0.85
2 | Cc1ccc(Oc2cccc3nc(N)nc(N)c23)cc1 [Compound A-9, 2,4-Diamino-5-(4-methylphenoxy)quinazoline] | 5.9 | 20.4
3 | CC(C)(C)c1ccc(Oc2cccc3nc(N)nc(N)c23)cc1 [Compound A-8, 2,4-Diamino-5-(4-tert-butylphenoxy)quinazoline] |  | 22.3
4 | Nc1ncnc2cccc(Oc3ccc(OCc4ccccc4)cc3)c12 [Compound A-28, 4-Amino-5-(4-benzyloxyphenoxy)quinazoline] |  | 6
5 | COc1ccccc1Oc1cccc2nc(N)nc(N)c12 [Compound A-22, 2,4-Diamino-5-(2-methoxyphenoxy)quinazoline] |  | 0.4
6 | COc1cccc(Oc2cccc3nc(N)nc(N)c23)c1 [Compound A-23, 2,4-Diamino-5-(3-methoxyphenoxy)quinazoline] |  | 0.6
7 | Nc1nc(N)c2c(Oc3ccc(F)cc3)cccc2n1 [Compound A-7, 2,4-Diamino-5-(4-fluorophenoxy)quinazoline] | 1.7 | > 100
8 | COc1ccc(Oc2cccc3nc(N)nc(N)c23)cc1 [Compound A-6, 2,4-Diamino-5-(4-methoxyphenoxy)quinazoline] |  | > 100
